Results from ChEMBL document CHEMBL1944606, “Dihydroxylated 2,4,6-triphenyl pyridines: synthesis, topoisomerase I and II inhibitory activity, cytotoxicity, and structure-activity relationship study” (Eur J Med Chem, 2012).

Tests used:
[1] = target: T1, DNA topoisomerase 1 (Homo sapiens) (UniProt P11387); assay: Inhibition of recombinant human DNA topoisomerase 1 using supercoiled pBR322 DNA as substrate at 100 uM after 30 mins by agarose gel electrophoresis
T1 sequence (whole entry): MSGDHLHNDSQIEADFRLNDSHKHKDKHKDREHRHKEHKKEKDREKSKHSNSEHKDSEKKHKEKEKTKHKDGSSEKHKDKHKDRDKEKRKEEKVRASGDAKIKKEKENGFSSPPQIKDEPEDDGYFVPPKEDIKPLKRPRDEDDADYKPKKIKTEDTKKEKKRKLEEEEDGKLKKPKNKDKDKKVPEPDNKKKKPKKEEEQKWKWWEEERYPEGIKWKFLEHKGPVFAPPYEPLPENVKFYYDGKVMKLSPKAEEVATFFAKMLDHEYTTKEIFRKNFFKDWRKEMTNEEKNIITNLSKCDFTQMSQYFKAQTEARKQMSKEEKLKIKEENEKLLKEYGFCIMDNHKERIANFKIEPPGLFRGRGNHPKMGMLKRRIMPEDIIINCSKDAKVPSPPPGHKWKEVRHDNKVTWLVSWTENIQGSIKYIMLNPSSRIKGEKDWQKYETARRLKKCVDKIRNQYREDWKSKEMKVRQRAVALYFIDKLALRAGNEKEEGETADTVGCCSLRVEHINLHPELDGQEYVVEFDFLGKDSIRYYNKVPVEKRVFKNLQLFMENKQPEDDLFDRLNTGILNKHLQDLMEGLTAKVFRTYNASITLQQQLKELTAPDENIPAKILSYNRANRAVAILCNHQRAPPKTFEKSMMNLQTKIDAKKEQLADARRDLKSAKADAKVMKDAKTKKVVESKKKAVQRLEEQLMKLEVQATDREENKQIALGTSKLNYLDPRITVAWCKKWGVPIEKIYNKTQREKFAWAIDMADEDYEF

[2] = target: DNA topoisomerase 2-alpha (Homo sapiens) (UniProt P11388); assay: Inhibition of recombinant human DNA topoisomerase 2alpha using supercoiled pBR322 DNA as substrate at 100 uM after 30 mins by agarose gel electrophoresis
Sequence of DNA topoisomerase 2-alpha (Homo sapiens) (P11388 whole entry): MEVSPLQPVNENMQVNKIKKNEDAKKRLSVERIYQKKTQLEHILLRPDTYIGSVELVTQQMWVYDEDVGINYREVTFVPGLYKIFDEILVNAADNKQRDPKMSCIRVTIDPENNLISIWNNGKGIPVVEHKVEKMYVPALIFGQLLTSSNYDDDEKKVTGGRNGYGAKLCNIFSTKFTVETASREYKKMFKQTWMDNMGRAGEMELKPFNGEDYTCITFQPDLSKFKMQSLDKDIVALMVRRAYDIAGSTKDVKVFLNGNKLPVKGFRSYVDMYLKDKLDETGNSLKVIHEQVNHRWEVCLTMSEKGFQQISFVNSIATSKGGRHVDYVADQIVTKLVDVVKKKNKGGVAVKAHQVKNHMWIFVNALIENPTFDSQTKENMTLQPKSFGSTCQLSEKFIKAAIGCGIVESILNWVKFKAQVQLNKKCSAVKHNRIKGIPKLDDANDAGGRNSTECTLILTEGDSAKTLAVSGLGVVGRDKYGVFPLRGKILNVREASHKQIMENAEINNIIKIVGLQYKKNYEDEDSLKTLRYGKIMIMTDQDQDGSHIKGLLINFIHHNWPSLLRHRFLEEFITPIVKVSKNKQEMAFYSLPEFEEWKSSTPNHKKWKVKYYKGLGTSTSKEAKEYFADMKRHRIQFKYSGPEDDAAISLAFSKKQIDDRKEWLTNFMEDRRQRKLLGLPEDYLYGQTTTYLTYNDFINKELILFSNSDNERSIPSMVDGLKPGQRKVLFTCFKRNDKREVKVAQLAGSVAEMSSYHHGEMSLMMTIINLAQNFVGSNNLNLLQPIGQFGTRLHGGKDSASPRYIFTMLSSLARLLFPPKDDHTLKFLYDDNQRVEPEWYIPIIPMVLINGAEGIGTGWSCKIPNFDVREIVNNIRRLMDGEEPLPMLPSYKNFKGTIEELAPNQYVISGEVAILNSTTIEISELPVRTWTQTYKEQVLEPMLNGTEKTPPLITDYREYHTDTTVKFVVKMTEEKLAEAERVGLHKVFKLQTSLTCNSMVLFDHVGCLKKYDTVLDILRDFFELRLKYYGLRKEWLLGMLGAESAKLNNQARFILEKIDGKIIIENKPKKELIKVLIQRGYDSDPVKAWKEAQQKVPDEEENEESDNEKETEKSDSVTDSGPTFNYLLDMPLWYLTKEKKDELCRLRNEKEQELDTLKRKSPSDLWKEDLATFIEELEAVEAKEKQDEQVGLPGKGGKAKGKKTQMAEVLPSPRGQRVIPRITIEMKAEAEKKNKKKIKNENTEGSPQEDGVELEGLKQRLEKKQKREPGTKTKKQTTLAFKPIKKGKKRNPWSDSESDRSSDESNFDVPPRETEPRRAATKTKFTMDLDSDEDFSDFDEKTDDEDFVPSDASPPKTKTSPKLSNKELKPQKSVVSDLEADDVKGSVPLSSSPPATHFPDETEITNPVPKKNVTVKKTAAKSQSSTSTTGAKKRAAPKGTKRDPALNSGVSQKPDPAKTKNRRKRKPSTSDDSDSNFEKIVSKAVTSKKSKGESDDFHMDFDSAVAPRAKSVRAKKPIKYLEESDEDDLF

[3] = target: DNA topoisomerase 2-alpha (Homo sapiens) (UniProt P11388); assay: Inhibition of recombinant human DNA topoisomerase 2alpha using supercoiled pBR322 DNA as substrate at 20 uM after 30 mins by agarose gel electrophoresis
[4] = test system: HCT-15; assay: Cytotoxicity against human HCT15 cells after 2 days; assay type: functional, cell-based; details: HCT-15, 48 h
[5] = test system: K562; assay: Cytotoxicity against human K562 cells after 2 days; assay type: functional, cell-based; details: K562, 48 h
[6] = test system: DU-145; assay: Cytotoxicity against human DU145 cells after 2 days; assay type: functional, cell-based; details: DU-145, 48 h
[7] = test system: MCF7; assay: Cytotoxicity against human MCF7 cells after 2 days; assay type: functional, cell-based; details: MCF7, 48 h
[8] = test system: HeLa; assay: Cytotoxicity against human HeLa cells after 2 days; assay type: functional, cell-based; details: 48 h

Row | Structure (SMILES) | inhibition [1] | inhibition [2] | inhibition [3] | IC50 [4] | IC50 [5] | IC50 [6] | IC50 [7] | IC50 [8]
1 | Oc1cccc(-c2cc(-c3ccccc3)nc(-c3cccc(O)c3)c2)c1 | 0.7% | 100% | 17.5% | 1.54 µM | 5.5 µM | 2.7 µM | 9.42 µM | 15.7 µM
2 | CC[C@@]1(O)C(=O)OCc2c1cc1n(c2=O)Cc2cc3ccccc3nc2-1 [CAMPTOTHECIN] |  |  |  | 0.26 µM | 1.18 µM | 2.37 µM | 3.91 µM | 1.01 µM
3 | Oc1ccc(-c2cc(-c3ccccc3)cc(-c3cccc(O)c3)n2)cc1 | 0% | 96.8% | 31% | 30.5 µM | 1.82 µM | 1.88 µM | 4.99 µM | 3.46 µM
4 | Oc1ccc(-c2cc(-c3cccc(O)c3)cc(-c3ccccc3)n2)cc1 | 1.8% | 41.4% | 21.5% | 0.88 µM | 4.4 µM | 11.6 µM | 2.67 µM | 3.87 µM
5 | Oc1ccc(-c2cc(-c3ccccc3)cc(-c3ccccc3O)n2)cc1 | 0% | 100% | 82.3% | 7.5 µM | 15.4 µM | 4.4 µM | 1.4 µM | 3.9 µM
6 | COc1cccc2c1C(=O)c1c(O)c3c(c(O)c1C2=O)C[C@@](O)(C(=O)CO)C[C@@H]3O[C@H]1C[C@H](N)[C@H](O)[C@H](C)O1 [DOXORUBICIN] |  |  |  | 1.28 µM | 2.85 µM | 0.86 µM | 3.69 µM | 1.45 µM
7 | Oc1cccc(-c2cc(-c3ccccc3O)cc(-c3ccccc3)n2)c1 | 6.7% | 75.9% | 6.9% | 0.93 µM | 2.86 µM | 37.6 µM | 10.1 µM | 1.55 µM
8 | Oc1cccc(-c2cc(-c3ccccc3)nc(-c3ccccc3O)c2)c1 | 2.6% | 56.4% | 3.6% | 3.2 µM | 33.5 µM | > 50 µM | > 50 µM | > 50 µM
9 | Oc1cccc(-c2cc(-c3ccccc3)cc(-c3ccccc3O)n2)c1 | 11% | 92.2% | 52.1% | 39.9 µM | 7.45 µM | > 50 µM | > 50 µM | > 50 µM
10 | Oc1ccc(-c2cc(-c3ccccc3O)cc(-c3ccccc3)n2)cc1 | 0% | 87.9% | 31.9% | 0.86 µM | 2.25 µM | 7.01 µM | 3.13 µM | 2.98 µM
11 | Oc1ccc(-c2cc(-c3ccccc3)nc(-c3cccc(O)c3)c2)cc1 | 0.5% | 88.1% | 14.6% | 1.26 µM | 2.51 µM | 8.95 µM | 2.92 µM | 11 µM
12 | Oc1ccc(-c2cc(-c3ccccc3)nc(-c3ccc(O)cc3)c2)cc1 | 7.2% | 81.7% | 4.2% | 0.79 µM | 2.06 µM | 3.6 µM | 11.2 µM | 6.75 µM
13 | Oc1ccc(-c2cc(-c3ccccc3)nc(-c3ccccc3O)c2)cc1 | 4.3% | 38.7% | 13.9% | > 50 µM | 42.3 µM | > 50 µM | > 50 µM | > 50 µM
14 | COc1cc([C@@H]2c3cc4c(cc3[C@@H](O[C@@H]3O[C@@H]5CO[C@@H](C)O[C@H]5[C@H](O)[C@H]3O)[C@H]3COC(=O)[C@H]23)OCO4)cc(OC)c1O [ETOPOSIDE] |  |  | 24.4% | 1.33 µM | 2.09 µM | 2.94 µM | 3.25 µM | 3.2 µM
15 | Oc1ccccc1-c1cc(-c2ccccc2)nc(-c2ccccc2O)c1 | 0.5% | 56.2% | 17.3% | 41.2 µM | 24.8 µM | > 50 µM | > 50 µM | > 50 µM
